This passage reports Activity results from ChEMBL document CHEMBL1146845, “Structural determinants for N1/N7 cyclization of nicotinamide hypoxanthine 5'-dinucleotide (NHD+) derivatives by ADP-ribosyl cyclase from aplysia californica: Ca2+-mobilizing activity of 8-substituted cyclic inosine 5'-diphosphoribose analogues in T-lymphocytes” (J Med Chem, 2006).

This test relates to Jurkat. Briefly: Induction of calcium ion mobilization in intact Jurkat cells. The class given is functional, cell-based. To be noted: Homo sapiens.

The structures appear in SMILES notation. Calls of active or inactive are those of the source. The calls are words filed in the database; no cut-off is given here.

With `O=c1c2nc(I)n3c2ncn1[C@@H]1O[C@H](COP(=O)(O)OP(=O)(O)OC[C@H]2O[C@@H]3[C@H](O)[C@@H]2O)[C@@H](O)[C@H]1O`, the outcome was Active. As to `O=c1c2nc(-c3ccccc3)n3c2ncn1[C@@H]1O[C@H](COP(=O)(O)OP(=O)(O)OC[C@H]2O[C@@H]3[C@H](O)[C@@H]2O)[C@@H](O)[C@H]1O`, the outcome was Active.
